{
  "source": "paper PMC9943626",
  "about": "“CS27109, A Selective Thyroid Hormone Receptor-β Agonist Alleviates Metabolic-Associated Fatty Liver Disease in Murine Models” (International Journal of Endocrinology, 2023)",
  "key": {"[1]": {"biological_target": "T1, THR-β (Homo sapiens, UniProt P10828)", "T1 construct": "expressed in transfected cells; host or cells: CV-1 cells", "T1 sequence (P10828 1-461)": "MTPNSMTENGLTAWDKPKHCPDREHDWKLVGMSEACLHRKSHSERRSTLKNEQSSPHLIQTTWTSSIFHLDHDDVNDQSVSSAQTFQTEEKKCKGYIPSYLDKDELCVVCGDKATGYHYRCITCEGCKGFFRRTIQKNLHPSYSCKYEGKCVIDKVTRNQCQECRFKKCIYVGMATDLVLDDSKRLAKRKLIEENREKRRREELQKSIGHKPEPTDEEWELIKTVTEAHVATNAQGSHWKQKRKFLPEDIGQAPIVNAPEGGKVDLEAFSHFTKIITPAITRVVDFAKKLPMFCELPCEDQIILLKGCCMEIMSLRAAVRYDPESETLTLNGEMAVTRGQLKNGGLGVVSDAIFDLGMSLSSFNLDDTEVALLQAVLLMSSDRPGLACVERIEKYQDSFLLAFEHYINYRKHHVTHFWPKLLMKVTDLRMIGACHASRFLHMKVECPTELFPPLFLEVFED", "assay": "Luciferase reporter gene assay, THR-β", "type": "cell-based", "description": "(§1) We applied a luciferase reporter gene assay to assess the capacity of drugs to bind and activate THRα or THRβ. First, we seeded 5 × 10^3 CV-1 cells for each well into 96-well plates and incubated for 24 hours at 37°C and 5% CO2. We then transiently transfected mixed THR-α or THR-β expression plasmids (with DR4) into liposomes with a firefly luciferase reporter (2 : 2 : 1, THRα : DR4 : GFP or 3 : 3 : 1, THRβ : DR4 : GFP) and then mixed with the X-tremeGENE HP DNA Transfection Reagent (Roche, Basel, BS, Switzerland). […] We then removed the medium and added 60 μl of 1x Cell Culture Lysis and 5x reagent (Promega, E153A) to each well. […] Finally, we added 30 μl of Luciferase Assay Buffer (Promega, E151A) to each well to detect Luci values. 50% activation (AC50) for each compound was calculated based on these values."}, "[2]": {"biological_target": "T2, THR-α (Homo sapiens, UniProt P10827)", "T2 construct": "expressed in transfected cells; host or cells: CV-1 cells", "T2 sequence (P10827 1-410 isoform P10827-2)": "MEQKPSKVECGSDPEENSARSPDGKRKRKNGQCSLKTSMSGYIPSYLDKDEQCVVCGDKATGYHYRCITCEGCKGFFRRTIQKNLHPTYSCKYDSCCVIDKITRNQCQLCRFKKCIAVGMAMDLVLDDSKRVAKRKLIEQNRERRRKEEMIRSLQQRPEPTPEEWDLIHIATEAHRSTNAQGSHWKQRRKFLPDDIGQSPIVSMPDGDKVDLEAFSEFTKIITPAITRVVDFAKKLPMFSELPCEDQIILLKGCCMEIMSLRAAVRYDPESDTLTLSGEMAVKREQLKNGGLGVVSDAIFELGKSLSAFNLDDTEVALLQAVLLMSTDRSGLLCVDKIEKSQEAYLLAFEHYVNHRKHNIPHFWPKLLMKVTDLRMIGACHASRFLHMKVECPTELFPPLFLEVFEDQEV", "assay": "Luciferase reporter gene assay, THR-α", "type": "cell-based", "details": "CV-1 cells transfected with THR-α, DR4 luciferase reporter, 22 hours", "description": "as §1"}, "[3]": {"assay": "PK in the mouse", "type": "in vivo, C57/B6 mouse", "description": "Blood was collected for each mouse 0.5, 1, 2, 3, 4, 6, 8, 24, and 30 hours (H) after compound administration. Then, the serum was isolated and an extractant (containing 200 ng/ml methanol) was added to the serum. Samples were assessed by liquid chromatography-tandem mass spectrometry (LC-MS/MS) according to the standard procedure."}, "[4]": {"system": "WD + CCL4 model", "design": "method as in earlier work", "details": "CCL4 induction started at week 8 (8 weeks in total), drug began 4-week after CCL4 induction; CS27109 alone; ref our another study (manuscript is submitting to another journal); cited from earlier work"}},
  "data": [
    {"smiles": "N#Cc1nn(-c2cc(Br)c(Oc3n[nH]c(=O)c4ccccc34)c(Br)c2)c(=O)[nH]c1=O", "note": "[CS27109]", "values": [
      {"measurement": "AC50", "setting": "[1]; CV-1 cells transfected with THR-β, DR4 luciferase reporter, 22 hours", "value": 1.98, "unit": "µM"},
      {"measurement": "Selectivity (α/β)", "setting": "[1]; THR-α/THR-β AC50 ratio", "value": 12.67},
      {"measurement": "AC50", "setting": "[2]", "value": 25.1, "unit": "µM"},
      {"measurement": "PK properties in mouse (comparison of CS27109 and MGL3196)", "setting": "[3]; 10 mg/kg oral gavage once", "value": "comparative PK properties"},
      {"measurement": "AUC in mouse relative to AUC in rat", "setting": "[3]; 10 mg/kg oral, mouse higher than rat", "value": 1.5, "unit": "fold"},
      {"measurement": "liver fibrosis", "setting": "[4]", "value": "sufficient to reverse liver fibrosis"}
    ]}
  ]
}
